Values joined by “and” are separate entries in the source; they are usually repeats but may differ in a detail not shown here. Identical values can stand only once. Like-named read-outs stand apart in the source and are kept apart here. Marks after values point to notes of the source that are not given here.
Legend:
LmTK [1] = target: T1, LmTK (Leishmania major, UniProt Q4QC75); assay: TK activity, enzyme coupled spectrophotometric assay (substrate kinetics); format: biochemical; conditions: for kcat / Vmax / Km: recombinant full-length LmTK; for Vmax / Km: 25°C, pH 7.4; for Activity measurements at 10 mM substrate concentration (Vmax) / rate of phosphorylation by LmTK, fold lower than the Vmax value exhibited by TbTK: 10 mM substrate
Method: (§1) TK activity was measured spectrophotometrically using an enzyme coupled assay in buffer containing 50 mM Tris-HCl pH 7.4, 5 mM MgCl2, 50 mM KCl, 1 mM DTT, 0.5 mM ATP, 0.5 mM phosphoenolpyruvate (PEP), 0.2 mM NADH, 0.2 mM thymidine (dThd), 2 U pyruvate kinase (PK), 4 U lactate dehydrogenase (LDH) and variable amounts of enzyme. The reaction rate (AU/min) was registered as a decrease in absorbance at 340nm (NADH extinction coefficient) at 25°C at pH 7.4 using a multicell Hewlett-Packard 8452 diode array UV-VIS spectrophotometer. Diluted stocks of frozen full-length LmTK were freshly prepared in assay buffer before the measurements. […]

hTK1 [2] = system: hTK1; set-up: method as in Munch-Peterson et al. [43]; conditions: 37°C; ref Munch-Peterson et al. [43]; cited from earlier work
LmTK [3] = target: T1, LmTK; assay: TK activity, enzyme coupled spectrophotometric assay (substrate kinetics); format: biochemical; conditions: saturating dThd (25 μM)
[4] = system: Leishmania intracellular amastigote; set-up: method as in PMID 20922414; conditions: cited from earlier work
LmTK [5] = target: T1, LmTK; assay: Inhibition assay of LmTK activity; format: biochemical; conditions: for IC50: 22.3 nM LmTK, pH 7.4
Method: TK activity was measured spectrophotometrically using an enzyme coupled assay in buffer containing 50 mM Tris-HCl pH 7.4, 5 mM MgCl2, 50 mM KCl, 1 mM DTT, 0.5 mM ATP, 0.5 mM phosphoenolpyruvate (PEP), 0.2 mM NADH, 0.2 mM thymidine (dThd), 2 U pyruvate kinase (PK), 4 U lactate dehydrogenase (LDH) and variable amounts of enzyme. The reaction rate (AU/min) was registered as a decrease in absorbance at 340nm (NADH extinction coefficient) at 25°C at pH 7.4 using a multicell Hewlett-Packard 8452 diode array UV-VIS spectrophotometer. Diluted stocks of frozen full-length LmTK were freshly prepared in assay buffer before the measurements.
The method consists in determining experimental values for the initial velocities, v, as described above, at increasing inhibitor concentrations, added before initiating the reaction. LmTK and dThd concentrations were 22.3 nM and 25 μM respectively. The concentration of inhibitor that inhibits the activity by 50% (IC50) was calculated.

hTK1 [6] = target: hTK1; set-up: method as in PMID 3457791; conditions: cited from earlier work
TK from rat liver = system: TK from rat liver; set-up: method as in PMID 4539354; conditions: similar conditions (equimolar dTTP and dThd); cited from earlier work
LmTK [7] = target: T1, LmTK; assay: Inhibition assay of LmTK activity; format: biochemical
[8] = substrate: Cc1cn([C@H]2C[C@H](O)[C@@H](CO)O2)c(=O)[nH]c1=O; assay: TK activity, enzyme coupled spectrophotometric assay (substrate kinetics); format: biochemical, Leishmania major; conditions: other: recombinant full-length LmTK, 25°C, pH 7.4
Method: as §1

[9] = target: the molecule itself; assay: AUC; sedimentation velocity, unliganded C-terminally His-tagged LmTK (dTTP dialysed away), 0.15 and 0.45 mg/mL, SEC buffer (10 mM Tris pH 8.0, 200 mM NaCl, 1 mM DTT), 42 000 rpm, 20°C; c(s) analysis with SEDFIT
[10] = target: the molecule itself; assay: crystal structure; LmTK-dThd (with phosphate), 1.4 M Na/K PO4 pH 5.4, 1 mM dThd, 1 mM AppNHp, 3 mM MgCl2; space group P6(5)22, 2 protomers per asymmetric unit, 2.74 Å

O=c1[nH]c(=O)n([C@H]2C[C@H](O)[C@@H](CO)O2)cc1Br [5Br-2’dU]
kcat (LmTK [1]): 3.47 s⁻¹
Vmax (LmTK [1]): 6.17 ± 0.19 µmol/min/mg
Km (LmTK [1]; read-out: KM): 2 µM and 2.05 µM

O=c1[nH]c(=O)n([C@H]2C[C@H](O)[C@@H](CO)O2)cc1CO [5CH2OH-2’dU]
phosphorylation by LmTK (in words) (LmTK [1]): also phosphorylated
kcat (LmTK [1]): 2.82 s⁻¹
Vmax (LmTK [1]): 5.01 ± 1.30 µmol/min/mg
Km (LmTK [1]; read-out: KM): 96.7 ± 23.1 µM

O=c1[nH]c(=O)n([C@H]2C[C@H](O)[C@@H](CO)O2)cc1F [5F-2’dU]
kcat (LmTK [1]): 4.66 s⁻¹
Vmax (LmTK [1]): 8.29 ± 1.12 µmol/min/mg
Km (LmTK [1]; read-out: KM): 5.7 µM and 5.72 µM
Km (hTK1 [2]): 2200 nM
Vmax (hTK1 [2]): 8.99 µmol/min/mg
kcat (hTK1 [2]): 3.84 s⁻¹

C[C@H]1O[C@@H](n2cc(F)c(=O)[nH]c2=O)[C@H](O)[C@@H]1O [5F-5’dU]
phosphorylation by LmTK (in words) (LmTK [1]): is not
Activity measurements at 10 mM substrate concentration (Vmax) (LmTK [1]): 0.00 ^a μmol∙min^-1∙mg^-1

Nc1ncnc2c1ncn2[C@@H]1O[C@H](COP(=O)(O)OP(=O)(O)OP(=O)(O)O)[C@@H](O)[C@H]1O [ATP]
Hill coefficient (positive cooperativity) (LmTK [3]): 1.6
K0.5 (LmTK [3]; fit to Hill equation): 58.6 ± 2.4 µM

Cc1cn([C@H]2C[C@H](N=[N+]=[N-])[C@@H](CO)O2)c(=O)[nH]c1=O [AZT, 3’-azido-3’-deoxythymidine]
kcat (LmTK [1]): 1.97 s⁻¹
Km (LmTK [1]): 3 µM and 3.04 µM
Vmax (LmTK [1]): 3.52 ± 0.56 µmol/min/mg
Km (hTK1 [2]): 600 nM
Vmax (hTK1 [2]): 4.96 µmol/min/mg
kcat (hTK1 [2]): 2.12 s⁻¹
Leishmania intracellular amastigote growth (in words) [4]: inhibit Leishmania intracellular amastigote growth

Nc1ncnc2c1ncn2[C@@H]1O[C@H](CO)[C@@H](O)[C@H]1O [Ado, adenosine]
Activity measurements at 10 mM substrate concentration (Vmax) (LmTK [1]): 0.00 ^a μmol∙min^-1∙mg^-1
inhibition of LmTK (LmTK [5]; tested at 5 mM): no inhibition

Cc1cn([C@H]2C[C@H](O)[C@@H](COP(=O)(O)OP(=O)(O)OP(=O)(O)OP(=O)(O)OP(=O)(O)OC[C@H]3O[C@@H](n4cnc5c(N)ncnc54)[C@H](O)[C@@H]3O)O2)c(=O)[nH]c1=O [Ap5dT, P1-(5-adenosyl)-P5-(5-thymidyl) pentaphosphate]
IC50 (LmTK [5]; 25 μM dThd, 0.5 mM ATP): 1.1 µM
Ki (hTK1 [6]): 120 nM

Nc1ccn([C@@H]2O[C@H](CO)[C@@H](O)[C@H]2O)c(=O)n1 [Cyd]
Activity measurements at 10 mM substrate concentration (Vmax) (LmTK [1]): 0.00 ^a μmol∙min^-1∙mg^-1

Nc1nc2c(ncn2[C@@H]2O[C@H](CO)[C@@H](O)[C@H]2O)c(=O)[nH]1 [Guo]
Activity measurements at 10 mM substrate concentration (Vmax) (LmTK [1]): 0.00 ^a μmol∙min^-1∙mg^-1

O=c1ccn([C@@H]2O[C@H](CO)[C@@H](O)[C@H]2O)c(=O)[nH]1 [Urd]
kcat (LmTK [1]): 0.44 s⁻¹
Vmax (LmTK [1]): 0.79 ± 0.12 µmol/min/mg
Km (LmTK [1]; read-out: KM): 1460 ± 158 µM

Nc1ncnc2c1ncn2C1CC(O)C(CO)O1 (stereo not drawn) [dAdo]
Activity measurements at 10 mM substrate concentration (Vmax) (LmTK [1]): 0.01 ^a μmol∙min^-1∙mg^-1
rate of phosphorylation by LmTK, fold lower than the Vmax value exhibited by TbTK (LmTK [1]): 6 fold

Nc1ccn([C@H]2C[C@H](O)[C@@H](COP(=O)(O)OP(=O)(O)OP(=O)(O)O)O2)c(=O)n1 [dCTP]
IC50 (LmTK [5]; 25 μM dThd, 0.5 mM ATP): 1250 µM

Nc1ccn([C@H]2C[C@H](O)[C@@H](CO)O2)c(=O)n1 [dCyd]
Activity measurements at 10 mM substrate concentration (Vmax) (LmTK [1]): 0.07 ^a μmol∙min^-1∙mg^-1

Nc1nc2c(ncn2[C@H]2C[C@H](O)[C@@H](COP(=O)(O)OP(=O)(O)OP(=O)(O)O)O2)c(=O)[nH]1 [dGTP]
IC50 (LmTK [5]; 25 μM dThd, 0.5 mM ATP): 549 µM

Nc1nc2c(ncn2[C@H]2C[C@H](O)[C@@H](CO)O2)c(=O)[nH]1 [dGuo]
Activity measurements at 10 mM substrate concentration (Vmax) (LmTK [1]): 0.04 ^a μmol∙min^-1∙mg^-1
rate of phosphorylation by LmTK, fold lower than the Vmax value exhibited by TbTK (LmTK [1]): 10 fold

O=c1[nH]cnc2c1ncn2[C@H]1C[C@H](O)[C@@H](CO)O1 [dIno]
Activity measurements at 10 mM substrate concentration (Vmax) (LmTK [1]): 0.04 ^a μmol∙min^-1∙mg^-1
rate of phosphorylation by LmTK, fold lower than the Vmax value exhibited by TbTK (LmTK [1]): 23 fold

Cc1cn([C@H]2C[C@H](O)[C@@H](COP(=O)(O)O)O2)c(=O)[nH]c1=O [dTMP, thymidine monophosphate]
IC50 (LmTK [5]; 25 μM dThd, 0.5 mM ATP): 165 µM

Cc1cn([C@H]2C[C@H](O)[C@@H](COP(=O)(O)OP(=O)(O)OP(=O)(O)O)O2)c(=O)[nH]c1=O [dTTP, 2'-deoxythymidine triphosphate]
inhibition (TK from rat liver): 87%
Hill coefficient (h) of inhibition (LmTK [5]; 25 μM dThd, 0.5 mM ATP): 1.6
IC50 (LmTK [5]; 25 μM dThd, 0.5 mM ATP): 3.8 ± 0.07 µM
fold increase in the K0.5 value for ATP compared to absence of dTTP (LmTK [7]; 3.5 μM dTTP, ATP 50–500 μM, 25 μM dThd): 5 fold
enzyme inhibition (LmTK [7]; 0.2 mM dTTP, equimolar 0.2 mM dThd, 0.5 mM ATP): 98%

Cc1cn([C@H]2C[C@H](O)[C@@H](CO)O2)c(=O)[nH]c1=O [dThd, 2’-deoxythymidine]
KM fold lower than that reported for TbTK (LmTK [1]; comparison with TbTK ref 35): ~ 7 fold

O=c1ccn([C@H]2C[C@H](O)[C@@H](COP(=O)(O)OP(=O)(O)OP(=O)(O)O)O2)c(=O)[nH]1 [dUTP]
IC50 (LmTK [5]; 25 μM dThd, 0.5 mM ATP): 187 µM

O=c1ccn([C@H]2C[C@H](O)[C@@H](CO)O2)c(=O)[nH]1 [dUrd]
KM fold higher than that for dThd (LmTK [1]): approximately 10 fold
kcat (LmTK [1]): 3.06 s⁻¹
Vmax (LmTK [1]): 5.45 ± 0.77 µmol/min/mg
Km (LmTK [1]; read-out: KM): 11.1 ± 2.7 µM
Km (hTK1 [2]): 9000 nM
Vmax (hTK1 [2]): 11.87 µmol/min/mg
kcat (hTK1 [2]): 5.07 s⁻¹

B1: LmTK (Leishmania major) (protein)
chain: FRGRIELIIGPMFAGKTTELMRRVKREIHARRSCFVIKYSKDTRYDEHNVASHDQLMLRAQAAVSQLTEVRDTWKRFDVLAIDEGQFFSDLVDFCNTAADAGKVVMVSALDGDYRRKPFGQICELVPYCEAVDKLTAVCMMCHEQPACFTRRTVNVEQQELIGGADMYIATCRECYSKQQLPSIEEMRTQRMAIKEVEKRYLGLSDKRATASPQTPEKPAGGWCTKAGVATLPTMVKEGAASSGASAGMKSGRGLCEMQAFTTETPKYQRVEPACTASAASSE
Km [8]: 1.10 ± 0.33 µM
Vmax [8]: 4.66 µmol/min/mg
kcat [8]: 2.62 s⁻¹
kcat/Km [8]: 2.38e+06 M⁻¹ s⁻¹

B2: C-terminally His-tagged truncated L. major thymidine kinase (LmTK), amino acids 2-185 (enzyme, L. major strain Friedlin, UniProt Q4QC75 2-185, looked up)
chain: FRGRIELIIGPMFAGKTTELMRRVKREIHARRSCFVIKYSKDTRYDEHNVASHDQLMLRAQAAVSQLTEVRDTWKRFDVLAIDEGQFFSDLVDFCNTAADAGKVVMVSALDGDYRRKPFGQICELVPYCEAVDKLTAVCMMCHEQPACFTRRTVNVEQQELIGGADMYIATCRECYSKQQLPSI
notes: Thymidine kinase of Leishmania major strain Friedlin (GeneDB LmjF.21.1210), C-terminally truncated version spanning amino acids 2-185; Non-cleavable C-terminal His tag; Stabilised with dTTP/MgCl2 or dThd/AppNHp/MgCl2; also called C-terminal histagged LmTK; LmTK-dTTP; source: Sf9 insect cells (baculovirus), purified (HisTrap, Superdex 200 SEC); not shown: His6, C-terminal, kept
stoichiometry N [9]: 4

B3: Truncated L. major thymidine kinase (LmTK), amino acids 2-185, as crystallised with dThd/AppNHp and with AP5dT (enzyme, L. major strain Friedlin, UniProt Q4QC75 2-185, looked up)
chain: FRGRIELIIGPMFAGKTTELMRRVKREIHARRSCFVIKYSKDTRYDEHNVASHDQLMLRAQAAVSQLTEVRDTWKRFDVLAIDEGQFFSDLVDFCNTAADAGKVVMVSALDGDYRRKPFGQICELVPYCEAVDKLTAVCMMCHEQPACFTRRTVNVEQQELIGGADMYIATCRECYSKQQLPSI
notes: Thymidine kinase of Leishmania major strain Friedlin (GeneDB LmjF.21.1210), C-terminally truncated version spanning amino acids 2-185; both preparations (each with dThd, AppNHp, MgCl2) were used for crystallization screening; also called LmTK-dThd; LmTK-dThd-AppNHp; source: Sf9 insect cells (baculovirus), purified (HisTrap, Superdex 200 SEC)
stoichiometry N [10]: 4
